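Results reflect a 48-hour exposure of cells in 96-well plates to compound at five concentrations. At the TGI there is no net growth.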
Columns and labels:
Assay in all cases: NCI tumour cell line growth inhibition, 48 h
[1] = system: DMS 114 small cell lung
[2] = system: IGROV1 ovarian
[3] = system: SK-MEL-28 melanoma
[4] = system: RXF 393 renal
[5] = system: A498 renal
[6] = system: LOX IMVI melanoma
[7] = system: OVCAR-3 ovarian
[8] = system: LXFL 529 NSCLC
[9] = system: NCI-H23 lung
[10] = system: SN12C renal
[11] = system: UO-31 renal
[12] = system: TK-10 renal
[13] = system: SW-620 colon
[14] = system: XF 498 CNS
[15] = system: HOP-62 NSCLC
[16] = system: M19-MEL melanoma
[17] = system: HT29 colon
[18] = system: KM20L2 colon
[19] = system: SNB-19 CNS
[20] = system: K-562 leukemia
[21] = system: NCI-H522 lung
[22] = system: SK-OV-3 ovarian
[23] = system: MOLT-4 leukemia
[24] = system: SK-MEL-2 melanoma
[25] = system: HOP-18 NSCLC
[26] = system: SK-MEL-5 melanoma
[27] = system: A549 NSCLC
[28] = system: OVCAR-8 ovarian
[29] = system: SNB-75 CNS
[30] = system: HL-60(TB) leukemia
[31] = system: CCRF-CEM leukemia
[32] = system: U251 CNS
[33] = system: OVCAR-5 ovarian
[34] = system: OVCAR-4 ovarian
[35] = system: UACC-257 melanoma
[36] = system: SR leukemia
[37] = system: DLD-1 colon
[38] = system: UACC-62 melanoma
[39] = system: 786-0 renal
[40] = system: HCT-15 colon
[41] = system: CAKI-1 renal
[42] = system: HCT-116 colon
[43] = system: SF-295 CNS
[44] = system: SF-268 CNS
[45] = system: NCI-H226 lung
[46] = system: SF-539 CNS
[47] = system: KM12 colon
[48] = system: M14 melanoma
[49] = system: HCC-2998 colon
[50] = system: HOP-92 NSCLC
[51] = system: NCI-H460 lung
[52] = system: ACHN renal
[53] = system: EKVX NSCLC
[54] = system: RPMI-8226 leukemia
[55] = system: DMS 273 small cell lung
[56] = system: SNB-78 CNS
[57] = system: MALME-3M melanoma
[58] = system: COLO 205 colon
[59] = system: RXF-631 renal

## COc1cc2c[n+](C)c3c4cc(OC)c(OC)cc4c(OCCCCCCCCOc4cc5c6cc(OC)c(OC)cc6c[n+](C)c5c5cc(OC)c(OC)cc45)cc3c2cc1OC
[1]
  TGI: > 100 µM
[2]
  TGI: > 100 µM
[3]
  TGI: > 100 µM
[4]
  TGI: > 100 µM
[5]
  TGI: > 100 µM
[6]
  TGI: > 100 µM
[7]
  TGI: > 100 µM
[8]
  TGI: > 100 µM
[9]
  TGI: > 100 µM
[10]
  TGI: > 100 µM
[11]
  TGI: > 100 µM
[12]
  TGI: > 100 µM
[13]
  TGI: > 100 µM
[14]
  TGI: > 100 µM
[15]
  TGI: > 100 µM
[16]
  TGI: > 100 µM
[17]
  TGI: > 100 µM
[18]
  TGI: > 100 µM
[19]
  TGI: 66.3 µM
[20]
  TGI: > 100 µM
[21]
  TGI: > 100 µM
[22]
  TGI: > 100 µM
[23]
  TGI: > 100 µM
[24]
  TGI: > 100 µM
[25]
  TGI: > 100 µM
[26]
  TGI: > 100 µM
[27]
  TGI: > 100 µM
[28]
  TGI: > 100 µM
[29]
  TGI: > 100 µM
[30]
  TGI: > 100 µM
[31]
  TGI: > 100 µM
[32]
  TGI: > 100 µM
[33]
  TGI: > 100 µM
[34]
  TGI: > 100 µM
[35]
  TGI: > 100 µM
[36]
  TGI: > 100 µM
[37]
  TGI: > 100 µM
[38]
  TGI: > 100 µM
[39]
  TGI: > 100 µM
[40]
  TGI: > 100 µM
[41]
  TGI: > 100 µM
[42]
  TGI: > 100 µM
[43]
  TGI: > 100 µM
[44]
  TGI: > 100 µM
[45]
  TGI: > 100 µM
[46]
  TGI: > 100 µM
[47]
  TGI: > 100 µM
[48]
  TGI: > 100 µM
[49]
  TGI: > 100 µM
[50]
  TGI: > 100 µM
[51]
  TGI: > 100 µM
[52]
  TGI: > 100 µM
[53]
  TGI: > 100 µM
[54]
  TGI: > 100 µM
[55]
  TGI: > 100 µM
[56]
  TGI: > 100 µM
[57]
  TGI: > 100 µM

## COc1ccc(NC(=O)CC(=O)n2nc(-c3ccccc3)c(N=Nc3ccccc3C(=O)O)c2-c2ccccc2)cc1
[1]
  TGI: > 100 µM
[2]
  TGI: > 100 µM
[3]
  TGI: > 100 µM
[4]
  TGI: 90.7 µM
[6]
  TGI: > 100 µM
[7]
  TGI: > 100 µM
[8]
  TGI: > 100 µM
[9]
  TGI: > 100 µM
[10]
  TGI: > 100 µM
[11]
  TGI: > 100 µM
[12]
  TGI: > 100 µM
[13]
  TGI: > 100 µM
[15]
  TGI: > 100 µM
[16]
  TGI: > 100 µM
[18]
  TGI: > 100 µM
[19]
  TGI: > 100 µM
[20]
  TGI: > 100 µM
[21]
  TGI: > 100 µM
[22]
  TGI: 31.8 µM
[23]
  TGI: > 100 µM
[24]
  TGI: > 100 µM
[26]
  TGI: > 100 µM
[27]
  TGI: > 100 µM
[28]
  TGI: 78.9 µM
[31]
  TGI: > 100 µM
[32]
  TGI: > 100 µM
[58]
  TGI: > 100 µM
[33]
  TGI: > 100 µM
[34]
  TGI: > 100 µM
[59]
  TGI: > 100 µM
[36]
  TGI: > 100 µM
[37]
  TGI: > 100 µM
[38]
  TGI: > 100 µM
[39]
  TGI: 70.8 µM
[40]
  TGI: > 100 µM
[41]
  TGI: > 100 µM
[42]
  TGI: > 100 µM
[43]
  TGI: > 100 µM
[44]
  TGI: > 100 µM
[45]
  TGI: > 100 µM
[46]
  TGI: > 100 µM
[47]
  TGI: > 100 µM
[49]
  TGI: > 100 µM
[50]
  TGI: 41.4 µM
[52]
  TGI: > 100 µM
[53]
  TGI: > 100 µM
[54]
  TGI: > 100 µM
[55]
  TGI: > 100 µM
